Data taken from US20240336602A1 (Katholieke Universiteit Leuven, priority 2020, published 2024).

target: T1, mouse TRPM3a2 (mTRPM3) ion channel (Mus musculus, UniProt J9SQF3); assay: TRPM3 ion channel driven Ca2+ uptake, Fluo-4 AM assay (PS-stimulated, overexpressing flip-in HEK293 cells); format: cell-based; details: PS (50 μM) stimulated Ca2+ influx, HEK293, cpds 300-399
T1 construct: expressed in transfected cells; host or cells: flip-in HEK293
Description: In order to monitor the inhibition of the mouse TRPM3a2 (mTRPM3) ion channel by the compounds of the invention, a cellular system making use of an mTRPM3alpha2 or hTRPM3 overexpressing cell line (flip-in HEK293) was used. The TRPM3 channel was stimulated/opened with Pregnenolone sulfate (PS) (50 μM) which results in Ca^2+ influx.
For mTRPM3, the intracellular Ca^2+ was measured with a Calcium responsive dye, Fluor-4 AM ester (Invitrogen). Cells were cultured until a confluence of 80-90%, washed with Versene (Invitrogen) and detached from the surface by a short incubation with 0.05% Trypsin (Invitrogen). The trypsination process was stopped by the addition of complete cell culture medium (DMEM, glutamax, 10% FCS, NEAA, Pen-Strep). Cells were collected and resuspended in Krebs buffer without Calcium at RT.
Prior the cell seeding (±2000 cells/well into a black, 384 well plate (Greiner)) the diluted compound was added in the assay plate, together with the PS dissolved in Krebs buffer containing Calcium. […] Directly after cell addition the plates were read on an Envision fluorescence reader (Perkin Elmer) by an Excitation of 485 nm and emission at 535 nm.
Channel inhibition was calculated compared to a non-PS stimulated control versus a condition stimulated with PS (50 μM) with vehicle. The ability of the compounds of the invention to inhibit this activity was determined as: Percentage inhibition=[1-((RFU determined for sample with test compound present—RFU determined for sample with positive control inhibitor) divided by (RFU determined in the presence of vehicle—RFU determined for sample with positive control inhibitor))]*100.

T1 sequence (J9SQF3 1-1709 isoform J9SQF3-12): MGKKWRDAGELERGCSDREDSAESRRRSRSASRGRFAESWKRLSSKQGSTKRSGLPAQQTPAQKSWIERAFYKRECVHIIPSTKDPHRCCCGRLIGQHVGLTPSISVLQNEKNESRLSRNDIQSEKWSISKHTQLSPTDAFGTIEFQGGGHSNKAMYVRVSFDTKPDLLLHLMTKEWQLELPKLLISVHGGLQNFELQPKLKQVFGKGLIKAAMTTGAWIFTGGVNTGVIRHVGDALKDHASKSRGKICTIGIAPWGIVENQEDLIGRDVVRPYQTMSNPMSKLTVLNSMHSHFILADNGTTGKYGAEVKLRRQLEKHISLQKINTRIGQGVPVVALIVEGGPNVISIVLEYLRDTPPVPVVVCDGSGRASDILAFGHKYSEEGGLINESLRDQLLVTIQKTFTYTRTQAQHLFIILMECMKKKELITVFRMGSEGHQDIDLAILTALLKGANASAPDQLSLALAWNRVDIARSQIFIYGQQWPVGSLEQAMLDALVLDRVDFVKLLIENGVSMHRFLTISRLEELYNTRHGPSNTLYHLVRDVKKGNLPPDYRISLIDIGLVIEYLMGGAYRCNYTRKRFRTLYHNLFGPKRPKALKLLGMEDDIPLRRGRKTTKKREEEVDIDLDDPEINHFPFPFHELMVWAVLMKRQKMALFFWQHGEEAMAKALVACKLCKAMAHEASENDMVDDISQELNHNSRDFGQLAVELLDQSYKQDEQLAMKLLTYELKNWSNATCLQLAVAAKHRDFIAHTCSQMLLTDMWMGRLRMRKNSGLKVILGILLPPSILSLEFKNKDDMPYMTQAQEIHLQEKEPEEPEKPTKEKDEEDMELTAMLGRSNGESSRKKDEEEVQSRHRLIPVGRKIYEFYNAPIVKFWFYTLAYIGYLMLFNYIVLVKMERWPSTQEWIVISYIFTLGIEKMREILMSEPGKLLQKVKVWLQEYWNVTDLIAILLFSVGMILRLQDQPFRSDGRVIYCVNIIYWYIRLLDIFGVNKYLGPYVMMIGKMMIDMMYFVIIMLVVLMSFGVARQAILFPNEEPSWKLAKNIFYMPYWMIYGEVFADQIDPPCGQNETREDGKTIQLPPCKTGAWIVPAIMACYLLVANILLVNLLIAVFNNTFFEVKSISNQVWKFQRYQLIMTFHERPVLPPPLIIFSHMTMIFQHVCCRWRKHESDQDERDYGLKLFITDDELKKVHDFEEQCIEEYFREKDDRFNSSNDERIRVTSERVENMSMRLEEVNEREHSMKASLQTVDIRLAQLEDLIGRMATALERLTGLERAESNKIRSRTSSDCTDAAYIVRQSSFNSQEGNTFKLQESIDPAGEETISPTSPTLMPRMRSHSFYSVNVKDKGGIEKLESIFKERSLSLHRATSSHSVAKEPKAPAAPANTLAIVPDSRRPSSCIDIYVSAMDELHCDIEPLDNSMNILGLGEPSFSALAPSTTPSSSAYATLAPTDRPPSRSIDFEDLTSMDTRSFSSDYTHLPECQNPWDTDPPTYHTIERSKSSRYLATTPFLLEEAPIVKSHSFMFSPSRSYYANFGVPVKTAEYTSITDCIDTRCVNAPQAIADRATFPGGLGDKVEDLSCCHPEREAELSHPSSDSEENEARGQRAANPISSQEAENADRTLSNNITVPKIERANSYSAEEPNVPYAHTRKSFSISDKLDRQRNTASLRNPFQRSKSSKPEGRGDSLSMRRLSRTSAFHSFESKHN

| SMILES | IC50 [µM] |
| --- | --- |
| Cc1ncsc1COc1ccc2oc(C)c(C(=O)NC3CCN(CCO)C3=O)c2c1F (single isomer, unassigned) [326 - En 1] | ≤ 1 |
| Cc1ncsc1COc1ccc2oc(C)c(C(=O)NC3CCN(CCO)C3=O)c2c1F (single isomer, unassigned) [326 - En 2] | 1 to 20 |
| Cc1oc2ccc(OCc3ccnn3CC(F)F)cc2c1C(=O)NC1(CO)CCNC1=O (single isomer, unassigned) [333 - En 1] | ≤ 1 |
| CCOc1ncccc1COc1ccc2oc(C)c(C(=O)NC3CCN(CCO)C3=O)c2c1 (single isomer, unassigned) [348 - En 1] | ≤ 1 |
| Cc1oc2ccc(OCc3c(F)cnn3C)cc2c1C(=O)NC1(CO)CCCNC1=O (single isomer, unassigned) [355 - En 1] | ≤ 1 |
| Cc1oc2ccc(OCc3c(F)cnn3C)cc2c1C(=O)NC1(CO)CCNC1=O (single isomer, unassigned) [356 - En 1] | ≤ 1 |
| Cc1ncsc1COc1cc2c(C(=O)NC3CCN(CCO)C3=O)c(C)oc2cc1F (single isomer, unassigned) [360 - En 1] | ≤ 1 |
| Cc1ncsc1COc1cc(F)c2oc(C)c(C(=O)NC3CCN(CCO)C3=O)c2c1 (single isomer, unassigned) [365 - En 1] | ≥ 20 |
| Cc1ncc(COc2ccc3oc(C)c(C(=O)NC4COCC4O)c3c2)s1 (single isomer, unassigned) [386 - En 1] | ≤ 1 |
| Cc1ncc(COc2ccc3oc(C)c(C(=O)NC4COCC4O)c3c2)s1 (single isomer, unassigned) [386 - En 2] | 1 to 20 |
| Cc1oc2ccc(OCc3ccccn3)cc2c1C(=O)NC1COCC1O (single isomer, unassigned) [387 - En 1] | ≤ 1 |

Further lines, results first:

| IC50 [µM] | SMILES |
| --- | --- |
| ≤ 1 | Cc1ncc(COc2ccc3oc(C)c(C(=O)NC4COCC4O)c3c2)s1 (single isomer, unassigned) [388 - En 1] |
| 1 to 20 | Cc1ncc(COc2ccc3oc(C)c(C(=O)NC4COCC4O)c3c2)s1 (single isomer, unassigned) [388 - En 2] |
| ≤ 1 | Cc1ncc(C(C)Oc2ccc3oc(C)c(C(=O)NC(CO)C(N)=O)c3c2)s1 (single isomer, unassigned) [395 - Dia 1] |
| ≤ 1 | Cc1ncsc1COc1ccc2oc(C)c(C(=O)NC(C)C(=O)N(C)CCO)c2c1 (single isomer, unassigned) [396 - En 1] |
| ≤ 1 | Cc1ncsc1COc1ccc2oc(C)c(C(=O)NC(C)C(=O)NCCO)c2c1 (single isomer, unassigned) [397 - En 1] |

same assay, conditions: PS (50 μM) stimulated, cpd 001-199

| IC50 [µM] | SMILES |
| --- | --- |
| 1 to 20 | Cc1oc2ccc(OCc3cccnc3C(F)(F)F)cc2c1C(=O)O |
| ≤ 1 | Cc1ncsc1COc1ccc2oc(C)c(C(=O)NC3CCN(C)CC3(F)F)c2c1 (single isomer, unassigned) [110 - En 1] |
| ≤ 1 | Cc1ncsc1COc1ccc2oc(C)c(C(=O)NC3CN(C)CCC3(F)F)c2c1 (single isomer, unassigned) [118 - En 1] |
| ≤ 1 | Cc1ncsc1COc1ccc2oc(C)c(C(=O)NC3CN(C)CC3(F)F)c2c1 (single isomer, unassigned) [123 - En 1] |
| ≤ 1 | Cc1oc2ccc(OCc3cccnc3C(F)(F)F)cc2c1C(=O)NC1(CCO)CCOC1 (single isomer, unassigned) [126 - En 1] |
| ≤ 1 | Cc1oc2ccc(OCc3cccnc3C(F)(F)F)cc2c1C(=O)NC1CCN(C)CC1(F)F (single isomer, unassigned) [130 - En 1] |
| ≤ 1 | Cc1oc2ccc(OCc3cccnc3C(F)(F)F)cc2c1C(=O)NC1CN(C)CCC1(F)F (single isomer, unassigned) [131 - En 1] |
| 1 to 20 | Cc1oc2ccc(OCc3cccnc3C(F)(F)F)cc2c1C(=O)NC1CN(CCO)CC1(F)F (single isomer, unassigned) [134 - En 1] |
| ≤ 1 | Cc1oc2ccc(OCc3cccnc3C(F)(F)F)cc2c1C(=O)NC1CN(CCO)CC1(F)F (single isomer, unassigned) [134 - En 2] |
| ≤ 1 | Cc1oc2ccc(OCc3cccnc3C(F)(F)F)cc2c1C(=O)NC1CN(C)CC(F)(F)C1 (single isomer, unassigned) [141 - En 1] |
| ≤ 1 | Cc1ncsc1COc1ccc2oc(C)c(C(=O)NC3CN(CCO)CC3(F)F)c2c1 (single isomer, unassigned) [151 - En 1] |
| ≤ 1 | Cc1ncsc1COc1ccc2oc(C)c(C(=O)NC3CN(CC(F)(F)F)CC3(F)F)c2c1 (single isomer, unassigned) [155 - En 1, N-(4,4-difluoro-1-(2,2,2-trifluoroethyl)pyrrolidin-3-yl)-2-methyl-5-((4-methylthiazol-5-yl)me-thoxy)benzofuran-3-carboxamide] |
| ≤ 1 | Cc1ncsc1COc1ccc2oc(C)c(C(=O)NC3CN(CC(F)(F)F)CC3(F)F)c2c1 (single isomer, unassigned) [155 - En 2, N-(4,4-difluoro-1-(2,2,2-trifluoroethyl)pyrrolidin-3-yl)-2-methyl-5-((4-methylthiazol-5-yl)me-thoxy)benzofuran-3-carboxamide] |
| ≤ 1 | Cc1ncsc1COc1ccc2oc(C)c(C(=O)NC3CN(C)CC(F)(F)C3)c2c1 (single isomer, unassigned) [163 - En 1] |
| ≤ 1 | Cc1oc2cc(Cl)c(OCc3cccnc3C(F)(F)F)cc2c1C(=O)NC1CCNCC1(F)F (single isomer, unassigned) [165 - En 1] |
| 1 to 20 | Cc1oc2cc(Cl)c(OCc3cccnc3C(F)(F)F)cc2c1C(=O)NC1CCNCC1(F)F (single isomer, unassigned) [165 - En 2] |
| ≤ 1 | COCCN1CCC(NC(=O)c2c(C)oc3ccc(OCc4scnc4C)cc23)C1=O (single isomer, unassigned) [169 - En 1] |
| ≤ 1 | COCCN1CCC(NC(=O)c2c(C)oc3ccc(OCc4scnc4C)cc23)C1=O (single isomer, unassigned) [169 - En 2] |
| 1 to 20 | Cc1ncsc1COc1ccc2oc(C)c(C(=O)NC3CC(=O)N(CCO)C3)c2c1 (single isomer, unassigned) [180 - En 1] |
| 1 to 20 | Cc1oc2c(C)cc(OCc3cccnc3C(F)(F)F)cc2c1C(=O)NC1CCNCC1(F)F (single isomer, unassigned) [183 - En 1, N-(3,3-difluoropiperidin-4-yl)-2,7-dimethyl-5-((2-(trifluoromethyl)pyridin-3-yl)methoxy)benzofuran-3-carboxamide] |
| ≥ 20 | Cc1oc2c(C)cc(OCc3cccnc3C(F)(F)F)cc2c1C(=O)NC1CCNCC1(F)F (single isomer, unassigned) [183 - En 2, N-(3,3-difluoropiperidin-4-yl)-2,7-dimethyl-5-((2-(trifluoromethyl)pyridin-3-yl)methoxy)benzofuran-3-carboxamide] |
| 1 to 20 | Cc1oc2c(Cl)cc(OCc3cccnc3C(F)(F)F)cc2c1C(=O)NC1CCNCC1(F)F (single isomer, unassigned) [184 - En 1] |
| ≥ 20 | Cc1oc2c(Cl)cc(OCc3cccnc3C(F)(F)F)cc2c1C(=O)NC1CCNCC1(F)F (single isomer, unassigned) [184 - En 2] |
| 1 to 20 | Cc1oc2cc(C#N)c(OCc3cccnc3C(F)(F)F)cc2c1C(=O)NC1CCNCC1(F)F (single isomer, unassigned) [195 - En 2, 6-cyano-N-(3,3-difluoropiperidin-4-yl)-2-methyl-5-((2-(trifluoromethyl)pyridin-3-yl)methoxy)-benzofuran-3-carboxamide] |

same assay, conditions: PS (50 μM) stimulated, cpds. 400-499

| IC50 [µM] | SMILES |
| --- | --- |
| 1 to 20 | Cc1oc2ccc(OCc3nccn3C)cc2c1C(=O)NC1CCN(CCO)C1=O (single isomer, unassigned) [403 - En 1] |
| ≥ 20 | Cc1oc2ccc(OCc3nccn3C)cc2c1C(=O)NC1CCN(CCO)C1=O (single isomer, unassigned) [403 - En 2] |
| 1 to 20 | Cc1oc2ccc(OCc3ccnn3C)cc2c1C(=O)NC1CCN(CCO)C1=O (single isomer, unassigned) [404 - En 1] |
| ≤ 1 | Cc1oc2ccc(OCc3ccccn3)cc2c1C(=O)NC1CCN(CCO)C1=O (single isomer, unassigned) [406 - En 1] |
| ≤ 1 | Cc1oc2ccc(OCc3nccs3)cc2c1C(=O)NC1CCN(CCO)C1=O (single isomer, unassigned) [407 - En 1] |
| 1 to 20 | Cc1oc2ccc(OCc3nccs3)cc2c1C(=O)NC1CCN(CCO)C1=O (single isomer, unassigned) [407 - En 2] |
| ≤ 1 | Cc1oc2ccc(OCc3cccnc3O)cc2c1C(=O)NC1CCN(CCO)C1=O (single isomer, unassigned) [408 - En 1] |
| ≤ 1 | COc1ncccc1COc1ccc2oc(C)c(C(=O)NC3CCN(CCO)C3=O)c2c1 (single isomer, unassigned) [409 - En 1] |
| ≤ 1 | Cc1ncsc1COc1ccc2oc(C)c(C(=O)NC3(C)CCN(CCO)C3=O)c2c1 (single isomer, unassigned) [410 - En 1] |
| 1 to 20 | Cc1ncsc1COc1ccc2oc(C)c(C(=O)NC3(C)CCN(CCO)C3=O)c2c1 (single isomer, unassigned) [410 - En 2] |
